From patent US11192894B2, “Cell impermeable coelenterazine analogues” (PROMEGA CORPORATION, priority 2016, dated 2021)

What was measured:
[1] = biological target: purified NANOLUC® Luciferase (Oplophorus gracilirostris, UniProt Q9GV45, A31E/A60N/A81I/F95D/I117V/K70R/L54V/L99Q/M102K/N193R/P142E/Q151K/Q38R/Q45L/V71I/Y165I); assay type: biochemical; settings: for RLU at 100 uM: relative value, furimazine set to 1, purified NanoLuc, initial light output three minutes after substrate addition
Protocol: Each compound to be screened was dissolved in DMSO (5 mM) and then further diluted to 100 uM in NANO-GLO® Luciferase Assay Buffer. Each diluted substrate was then combined in equal volumes with purified NANOLUC® Luciferase diluted into CO2 independent media+10% FBS. Initial light output for each substrate was measured in a GloMax®-Multi+ luminometer three minutes after substrate addition and then at five minute intervals as a means to determine signal half-life. […] Km was calculated using GraphPad Prism using non linear Michaelis-Menten regression.

NanoLuc:KDR = test: Cell-based luciferase assay, HEK293 cells expressing NanoLuc:KDR (NanoLuc on the cell surface), ± extracellular inhibitor JRW-0344; settings: 10 μM substrate ± 20 μM inhibitor, FIG. 2A
Protocol: (§1) FIGS. 2A-2D show extracellular bioluminescent activity of exemplary compounds in HEK293 cells. HEK293 cells were transfected with two different membrane bound NANOLUC® fusions: 1) NanoLuc:KDR, presenting NanoLuc on the outside of the membrane; 2) KDR:NanoLuc, presenting NanoLuc on the inside of the membrane. The cell impermeable NANOLUC® inhibitor JRW-0344 (disclosed in U.S. Ser. No. 15/192,420 to Duellman et al., “THIENOPYRROLE COMPOUNDS AND USES THEREOF,” filed Jun. 24, 2016), was added to the cells to inhibit extracellular bioluminescent activity.
(§2) HEK293 cells were maintained in DMEM containing 100 IU/ml penicillin, 100 μg/ml streptomycin, and 10% fetal calf serum at 37° C. in 5% CO2. Dulbecco's modified eagle medium (DMEM), Opti-MEM, Penicillin/Streptomycin, and Trypsin-EDTA are purchased from Life Technologies (Carlsbad). Fetal calf serum (FBS) is purchased from HyClone (GE Healthcare). Microtiter plates were purchased from Corning.
(§3) HEK293 cells were transiently transfected with two different integral membrane NanoLuc fusion proteins: 1) NanoLuc:KDR, presenting NanoLuc on the cell surface; 2) KDR:NanoLuc, presenting NanoLuc in the interior of the cell. After 24 hours, transfected cells were collected, resuspended in OptiM at 200,000 cell/ml and plated into wells of white, 96-well plates at 100 μL/well. For luminescent measurements, cells were treated with the indicated substrates at a final concentration of 10 μM or 20 μM in the presence or absence of 20 μM cell impermeable NanoLuc inhibitor JRW-0344. The luminescent signal was analyzed 3 minutes after substrate addition using a GLOMAX® Discover multimode detection plate reader (Promega).

KDR:NanoLuc [2] = test: Cell-based luciferase assay, HEK293 cells expressing KDR:NanoLuc (NanoLuc in the interior of the cell), ± extracellular inhibitor JRW-0344; settings: HEK293 expressing KDR:Nluc; 10 μM substrate ± 20 μM JRW-0344; FIG. 2C
Protocol: as §1, §2, §3

KDR:NanoLuc [3] = test: Lytic vs. live cell format, HEK293 cells expressing KDR:NanoLuc; assay type: cell-based; settings: digitonin (lytic) or JRW-0344 (live), FIG. 3C
Protocol: (§4) FIGS. 3A-D show the activities of cell permeable and cell impermeable compounds at various substrate concentrations. HEK293 cells were transfected (1:100 carrier DNA) with the fusion protein KDR:NanoLuc, which presents membrane bound NanoLuc on the inside of the membrane. Cells were then treated with digitonin (for lytic format) or JRW-0344 (for live cell format). Both sets were treated with varying substrate concentrations to give Michaelis-Menten type plots. […] However, substrates that are cell impermeable (or mostly impermeable) show large differences between live and lytic cell formats (FIG. 3C).
as §4, with “HEK293” for “FIGS. 3A-D show the activities of cell permeable and cell impermeable compounds at various substrate concentrations. HEK293”, “digitonin to lyse the cell membrane” for “digitonin”, “format) to compare activity of cell permeable and non-cell permeable substrates.” for “format).”

[4] = system: Nluc-b2 adrenergic receptor (B2AR); test: Bioluminescence imaging of Nluc-B2AR in HeLa cells; assay type: cell-based; settings: 10 uM substrate, Olympus LV200, FIGS. 4A and 4B
Protocol: FIGS. 4A and 4B show the results of imaging of Nluc-B2AR in HeLa cells using furimazine and JRW-0769. HeLa cells were reverse transfected with an expression construct for Nluc-b2 adrenergic receptor (B2AR) and plated into a LabTEKII chambered coverslip (50,000 cells per well in 400 uL medium) and incubated overnight. For imaging, the medium was removed and replaced with CO2-independent medium. Immediately before placing the sample onto the imaging instrument, Furimazine or JRW-0769 was added to the cells at a final concentration of 10 uM. Image acquisition was performed on an Olympus LV200 bioluminescence imager using a 40×/0.95 NA objective with electromultiplying gain set to 400 and an acquisition time of 0.5 sec (Furimazine) and 2.5 sec (JRW-0769).
HeLa cells were reverse transfected with an expression construct for Nluc-b2 adrenergic receptor (B2AR) and plated into a LabTEKII chambered coverslip (50,000 cells per well in 400 uL medium) and incubated overnight. For imaging, the medium was removed and replaced with CO2-independent medium. Immediately before placing the sample onto the imaging instrument, Furimazine or JRW-0769 was added to the cells at a final concentration of 10 uM. […]

Sequence of purified NANOLUC® Luciferase (Q9GV45 28-196 with tags or gaps with the stated changes limits assumed): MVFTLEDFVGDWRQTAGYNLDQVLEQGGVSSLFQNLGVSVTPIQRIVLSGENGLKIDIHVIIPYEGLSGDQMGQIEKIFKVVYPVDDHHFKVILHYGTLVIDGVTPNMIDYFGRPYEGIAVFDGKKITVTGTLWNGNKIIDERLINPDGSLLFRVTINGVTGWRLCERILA

Compound	RLU at 100 uM [1]	Difference in RLU's in the presence and absence of the extracellular inhibitor (NanoLuc:KDR)	RLU and effect of the extracellular inhibitor (KDR:NanoLuc [2])	Lowered activity in the live cell format versus lytic format (KDR:NanoLuc [3])	RLU (absolute light output that is set to 1) ([1]; 2.5 ng/mL NanoLuc)	Localization of the imaged Nluc-B2AR signal [4]
O=c1c(Cc2ccc(OCCCCCCS(=O)(=O)[O-])c(Cl)c2)nc2c(Cc3ccccc3)[nH]c(-c3ccccc3)cn1-2.[Na+] [JRW-0728, sodium 6-(4-((8-benzyl-3-oxo-6-phenyl-3,7-dihydroimidazo[1,2-a]pyrazin-2-yl)methyl)-2-chlorophenoxy)hexane-1-sulfonate]	0.14	Larger differences in RLU's	much dimmer and can be inhibited close to background level	100 fold	–	–
O=c1c(Cc2ccc(OCCCCCCBr)c(Cl)c2)nc2c(Cc3ccccc3)[nH]c(-c3ccccc3)cn1-2 [JRW-0720, 8-benzyl-2-(4-((6-bromohexyl)oxy)-3-chlorobenzyl)-6-phenylimidazo[1,2-a]pyrazin-3(7H)-one]	0.0085	Small differences in RLU's	not affected by the extracellular inhibitor	–	–	–
NCCCCCCOc1cccc(Cc2nc3c(Cc4ccccc4)[nH]c(-c4ccccc4)cn-3c2=O)c1 [TAK-0039, 2-(3-((6-aminohexyl)oxy)benzyl)-8-benzyl-6-phenylimidazo[1,2-a]pyrazin-3(7H)-one]	0.0077	Small differences in RLU's	not affected by the extracellular inhibitor	–	–	–
O=c1c(Cc2ccco2)nc2c(Cc3ccccc3)[nH]c(-c3ccccc3)cn1-2 [Furimazine, reference compound]	1	–	–	–	~1.0×10^7 RLU	intracellular Nluc-B2AR
O=c1c(Cc2ccc(OCCCCCCS(=O)(=O)[O-])c(F)c2)nc2c(Cc3ccccc3)[nH]c(-c3ccccc3)cn1-2.[Na+] [JRW-0769, sodium 6-(4-((8-benzyl-3-oxo-6-phenyl-3,7-dihydroimidazo[1,2-a]pyrazin-2-yl)methyl)-2-fluorophenoxy)hexane-1-sulfonate]	0.1	Larger differences in RLU's	much dimmer and can be inhibited close to background level	100 fold	–	limited to membrane-localized receptor
O=C(O)CCCCCOc1cccc(Cc2nc3c(Cc4ccccc4)[nH]c(-c4ccccc4)cn-3c2=O)c1 [JRW-0684, 6-(3-((8-benzyl-3-oxo-6-phenyl-3,7-dihydroimidazo[1,2-a]pyrazin-2-yl)methyl)phenoxy)hexanoic acid]	0.0057	Small differences in RLU's	not affected by the extracellular inhibitor	–	–	–
O=c1c(Cc2cccc(OCCCCCCS(=O)(=O)[O-])c2)nc2c(Cc3ccccc3)[nH]c(-c3ccccc3)cn1-2.[Na+] [JRW-0703, sodium 6-(3-((8-benzyl-3-oxo-6-phenyl-3,7-dihydroimidazo[1,2-a]pyrazin-2-yl)methyl)phenoxy)hexane-1-sulfonate]	0.016	Larger differences in RLU's	much dimmer and can be inhibited close to background level	100 fold	–	–
